Bridge positions count the residues as written; N and C are the ends. Peptide text beside a SMILES is read from it. I, II: the chains in the order shown.

The target in assay [1] is T1, Relaxin-3 receptor 2 (Homo sapiens, UniProt Q8TDU9). Briefly: Agonist activity at human RXFP4 transfected in CHO-K1 cells co-transfected with pCRE-beta-galactosidase reporter plasmid assessed as inhibition of forskolin-induced cAMP accumulation measured after 6 hrs by beta-galactosidase reporter gene assay. It counts as functional, cell-based. A general note: Changes in cAMP serve as a functional read-out for many G protein-coupled receptors.
T1 sequence (Q8TDU9 whole entry): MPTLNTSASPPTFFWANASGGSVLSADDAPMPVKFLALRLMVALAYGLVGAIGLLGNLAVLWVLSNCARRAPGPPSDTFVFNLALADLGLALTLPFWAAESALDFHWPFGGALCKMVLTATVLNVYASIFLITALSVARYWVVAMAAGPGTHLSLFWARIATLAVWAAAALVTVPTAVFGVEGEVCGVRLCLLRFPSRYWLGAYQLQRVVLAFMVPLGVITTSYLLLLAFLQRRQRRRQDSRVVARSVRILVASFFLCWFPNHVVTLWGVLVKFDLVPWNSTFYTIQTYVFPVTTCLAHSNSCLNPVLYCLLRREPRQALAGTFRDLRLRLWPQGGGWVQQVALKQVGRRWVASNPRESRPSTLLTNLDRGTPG

Assay [2] addresses T1, Relaxin-3 receptor 2. Briefly: Competitive binding affinity to human RXFP4 receptor transfected in CHO-K1 cells in presence of europium-labeled Eu(A)-R3/I5 by fluorometric analysis. In kind it is cell-based.

The term EC50 denotes the concentration giving half of the maximal effect. For the compound `CC[C@H](C)[C@@H]1NC(=O)[C@H](Cc2ccc(O)cc2)NC(=O)[C@H]([C@@H](C)CC)NC(=O)[C@H](C(C)C)NC(=O)[C@H]([C@@H](C)O)NC(=O)[C@H](CCCNC(=N)N)NC(=O)[C@H]([C@@H](C)CC)NC(=O)[C@H](Cc2ccc(O)cc2)NC(=O)[C@H](CCC(=O)O)NC(=O)[C@H](CC(C)C)NC(=O)CNC(=O)[C@@H](N)CSSC[C@H](N)C(=O)N[C@@H]([C@@H](C)O)C(=O)N[C@@H](CC(=O)O)C(=O)NCC(=O)N[C@@H](C)C(=O)N[C@@H](CO)C(=O)N[C@@H](CCSC)C(=O)N[C@@H](CCCCN)C(=O)N[C@@H](CC(=O)O)C(=O)N[C@@H](CC(C)C)C(=O)N[C@@H](CO)C(=O)N[C@@H](C)C(=O)N[C@@H](CC(C)C)C(=O)N[C@H](C(=O)O)CSSC[C@@H](C(=O)N[C@@H](C)C(=O)N[C@@H](CO)C(=O)N[C@@H](CO)C(=O)N[C@@H](CCCNC(=N)N)C(=O)N[C@@H](Cc2c[nH]c3ccccc23)C(=O)O)NC1=O` (I: H-CGLEYIRTVIYICASSRW-OH / II: H-CTDGASMKDLSALC-OH; disulfide I:1-II:1, I:13-II:14), the concentration for a half-maximal effect (EC50) at Relaxin-3 receptor 2 [1] was 8.32 nM.
As usually defined, the Ki is a dissociation constant, usually derived from enzyme kinetics or from competition with a known ligand. In the case of `CC[C@H](C)[C@@H]1NC(=O)[C@H](Cc2ccc(O)cc2)NC(=O)[C@H]([C@@H](C)CC)NC(=O)[C@H](C(C)C)NC(=O)[C@H]([C@@H](C)O)NC(=O)[C@H](CCCNC(=N)N)NC(=O)[C@H]([C@@H](C)CC)NC(=O)[C@H](Cc2ccc(O)cc2)NC(=O)[C@H](CCC(=O)O)NC(=O)[C@H](CC(C)C)NC(=O)CNC(=O)[C@@H](NC(=O)[C@H](CC(C)C)NC(=O)[C@@H](N)CCCNC(=N)N)CSSC[C@H](N)C(=O)N[C@@H]([C@@H](C)O)C(=O)N[C@@H](CC(=O)O)C(=O)NCC(=O)N[C@@H](C)C(=O)N[C@@H](CO)C(=O)N[C@@H](CCSC)C(=O)N[C@@H](CCCCN)C(=O)N[C@@H](CC(=O)O)C(=O)N[C@@H](CC(C)C)C(=O)N[C@@H](CO)C(=O)N[C@@H](C)C(=O)N[C@@H](CC(C)C)C(=O)N[C@H](C(=O)O)CSSC[C@@H](C(=O)N[C@@H](C)C(=O)N[C@@H](CO)C(=O)N[C@@H](CO)C(=O)N[C@@H](CCCNC(=N)N)C(=O)N[C@@H](Cc2c[nH]c3ccccc23)C(=O)O)NC1=O` (I: H-RLCGLEYIRTVIYICASSRW-OH / II: H-CTDGASMKDLSALC-OH; disulfide I:3-II:1, I:15-II:14), at Relaxin-3 receptor 2 [2], the Ki is 50.1 nM. In addition, the EC50 at Relaxin-3 receptor 2 [1] is 14.1 nM.
`CC[C@H](C)[C@@H]1NC(=O)[C@H](Cc2ccc(O)cc2)NC(=O)[C@H]([C@@H](C)CC)NC(=O)[C@H](C(C)C)NC(=O)[C@H]([C@@H](C)O)NC(=O)[C@H](CCCNC(=N)N)NC(=O)[C@H]([C@@H](C)CC)NC(=O)[C@H](Cc2ccc(O)cc2)NC(=O)[C@H](CCC(=O)O)NC(=O)[C@H](CC(C)C)NC(=O)CNC(=O)[C@@H](NC(=O)[C@H](CC(C)C)NC(=O)[C@H](CCCNC(=N)N)NC(=O)[C@@H](NC(=O)[C@@H](N)CO)C(C)C)CSSC[C@H](N)C(=O)N[C@@H]([C@@H](C)O)C(=O)N[C@@H](CC(=O)O)C(=O)NCC(=O)N[C@@H](C)C(=O)N[C@@H](CO)C(=O)N[C@@H](CCSC)C(=O)N[C@@H](CCCCN)C(=O)N[C@@H](CC(=O)O)C(=O)N[C@@H](CC(C)C)C(=O)N[C@@H](CO)C(=O)N[C@@H](C)C(=O)N[C@@H](CC(C)C)C(=O)N[C@H](C(=O)O)CSSC[C@@H](C(=O)N[C@@H](C)C(=O)N[C@@H](CO)C(=O)N[C@@H](CO)C(=O)N[C@@H](CCCNC(=N)N)C(=O)N[C@@H](Cc2c[nH]c3ccccc23)C(=O)O)NC1=O` (I: H-SVRLCGLEYIRTVIYICASSRW-OH / II: H-CTDGASMKDLSALC-OH; disulfide I:5-II:1, I:17-II:14): the Ki at Relaxin-3 receptor 2 [2] is 34.7 nM. Moreover, on Relaxin-3 receptor 2 [1], the EC50 is 11 nM.

These data come from ChEMBL document CHEMBL4665916, “Human Insulin-like Peptide 5 (INSL5). Identification of a Simplified Version of Two-Chain Analog A13” (ACS Med Chem Lett, 2020).
